Measured values as given in ChEMBL document CHEMBL1201862, “PubChem BioAssay data set” (2004).
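In this assay, cells in 96-well plates receive the compound at five concentrations for 48 hours. Endpoints are linearly interpolated between the surrounding concentrations. GI50 marks 50% less growth.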 Activity calls are given as the source filed them. Rule as the data show it: active = GI50 up to about 1.1 µM and inactive = higher.

Tests used:
Experiment in all cases: inhibition of tumour cell growth, NCI panel, 48 h
IGROV-1 = system: IGROV-1
SF-539 = system: SF-539
HT-29 = system: HT-29
CAKI-1 = system: CAKI-1
U-251 = system: U-251
KM12 = system: KM12
SF-268 = system: SF-268
UACC-62 = system: UACC-62
SF-295 = system: SF-295
SNB-78 = system: SNB-78
HL-60 = system: HL-60
UO-31 = system: UO-31
786-0 = system: 786-0
UACC-257 = system: UACC-257
M14 = system: M14
SNB-75 = system: SNB-75
COLO 205 = system: COLO 205
Hs-578T = system: Hs-578T
NCI/ADR-RES = system: NCI/ADR-RES
DU-145 = system: DU-145

| Structure (SMILES) | GI50 (IGROV-1) | GI50 (SF-539) | GI50 (HT-29) | GI50 (CAKI-1) | GI50 (U-251) | GI50 (KM12) | GI50 (SF-268) | GI50 (UACC-62) | GI50 (SF-295) | GI50 (SNB-78) | GI50 (HL-60) | GI50 (UO-31) | GI50 (786-0) | GI50 (UACC-257) | GI50 (M14) | GI50 (SNB-75) | GI50 (COLO 205) | GI50 (Hs-578T) | GI50 (NCI/ADR-RES) | GI50 (DU-145) |
| --- | --- | --- | --- | --- | --- | --- | --- | --- | --- | --- | --- | --- | --- | --- | --- | --- | --- | --- | --- | --- |
| O=C1C2Nc3ccccc3SC2C(=O)N1c1ccccc1C(F)(F)F (configuration not stated) | 54.1 µM (inactive) | 17.8 µM (inactive) | 26.4 µM (inactive) | 24.9 µM (inactive) | 19.1 µM (inactive) | 10.1 µM (inactive) | 41.1 µM (inactive) | 19 µM (inactive) | 14.9 µM (inactive) | 15.2 µM (inactive) | 5.19 µM (inactive) | 38.2 µM (inactive) | 25.2 µM (inactive) | > 100 µM (inactive) | 16 µM (inactive) |  |  |  |  |  |
| CC(=O)OC1[C@H]2c3cc4c(cc3CN3CCC(C[C@@H]1OC(C)=O)C23)OCO4 (some centres not stated) | > 75 µM (inactive) | > 75 µM (inactive) | > 75 µM (inactive) |  | > 75 µM (inactive) | > 75 µM (inactive) | > 75 µM (inactive) | > 75 µM (inactive) | > 75 µM (inactive) | > 75 µM (inactive) | > 75 µM (inactive) | > 75 µM (inactive) | > 75 µM (inactive) | > 75 µM (inactive) | > 75 µM (inactive) | > 75 µM (inactive) | > 75 µM (inactive) |  |  |  |
| COc1ccc(NCC#N)cc1 | > 100 µM (inactive) | > 100 µM (inactive) | > 100 µM (inactive) |  | > 100 µM (inactive) | > 100 µM (inactive) | > 100 µM (inactive) | 83.4 µM (inactive) | > 100 µM (inactive) | > 100 µM (inactive) | 52.8 µM (inactive) | > 100 µM (inactive) | 25.1 µM (inactive) | > 100 µM (inactive) | > 100 µM (inactive) | 76.2 µM (inactive) | > 100 µM (inactive) |  |  |  |
| CSC(C1c2ccccc2N(C)c2[nH]c(=O)n(C)c(=O)c21)S(=O)(=O)c1ccc(C)cc1 (configuration not stated) | > 100 µM (inactive) | 42.7 µM (inactive) | > 100 µM (inactive) | > 100 µM (inactive) | > 100 µM (inactive) |  | > 100 µM (inactive) | > 100 µM (inactive) | > 100 µM (inactive) | > 100 µM (inactive) | 50.2 µM (inactive) | > 100 µM (inactive) | > 100 µM (inactive) | 60 µM (inactive) |  | 68.5 µM (inactive) | > 100 µM (inactive) |  |  |  |
| O=C(CSc1nnc(Cc2ccccc2)o1)Nc1ccc([N+](=O)[O-])cc1 | > 100 µM (inactive) | > 100 µM (inactive) | 48 µM (inactive) |  | > 100 µM (inactive) | > 100 µM (inactive) | > 100 µM (inactive) | > 100 µM (inactive) | 52 µM (inactive) | > 100 µM (inactive) | 14.1 µM (inactive) | 74.1 µM (inactive) | > 100 µM (inactive) | > 100 µM (inactive) | > 100 µM (inactive) | > 100 µM (inactive) | > 100 µM (inactive) |  |  |  |
| CC1(C)OC(=O)C(C#N)=C1/C=C/c1coc2ccc(Cl)cc2c1=O | 58.3 µM (inactive) | > 10 µM (inactive) | > 10 µM (inactive) | 10.8 µM (inactive) | 34.4 µM (inactive) | 41.3 µM (inactive) | 29.5 µM (inactive) | 31.7 µM (inactive) | 29.8 µM (inactive) | 33.8 µM (inactive) |  | 27.1 µM (inactive) | 37.2 µM (inactive) | 31.3 µM (inactive) | 35.6 µM (inactive) | 14.9 µM (inactive) | 57.7 µM (inactive) |  |  |  |
| COc1cccc(NC(=O)CC(=O)N2NC(c3ccccc3)C(/N=N/c3cccc(C(=O)O)c3)C2=O)c1 (configuration not stated) | > 100 µM (inactive) | > 100 µM (inactive) | > 100 µM (inactive) | 89.5 µM (inactive) | > 100 µM (inactive) | 39.4 µM (inactive) | > 100 µM (inactive) | 30.5 µM (inactive) | > 100 µM (inactive) | > 100 µM (inactive) |  | 27.5 µM (inactive) | > 100 µM (inactive) | > 100 µM (inactive) | > 100 µM (inactive) | > 100 µM (inactive) | > 10 µM (inactive) |  |  |  |
| O=C(Nc1ccc(Cl)c(C(F)(F)F)c1)C(=O)C(C(=O)/C=C/c1ccccc1)C1OC(=O)c2ccccc21 (configuration not stated) | > 100 µM (inactive) |  | > 100 µM (inactive) | > 100 µM (inactive) | 51.9 µM (inactive) | > 100 µM (inactive) | > 100 µM (inactive) | 71.1 µM (inactive) | > 100 µM (inactive) | 64 µM (inactive) | > 100 µM (inactive) | > 100 µM (inactive) | > 100 µM (inactive) | > 100 µM (inactive) | > 100 µM (inactive) | > 100 µM (inactive) | > 100 µM (inactive) |  |  |  |
| CN(C)CCCN1c2ccccc2C(C)(C)c2ccccc21 [DIMETACRINE] | 17.9 µM (inactive) | 15.2 µM (inactive) | 11.8 µM (inactive) | 12.6 µM (inactive) | 12.4 µM (inactive) | 14.1 µM (inactive) | 13.3 µM (inactive) | 13.1 µM (inactive) | 17.4 µM (inactive) |  | 15.1 µM (inactive) | 13.9 µM (inactive) | 14.4 µM (inactive) | 11.7 µM (inactive) | 15.5 µM (inactive) | 10.9 µM (inactive) | 14.6 µM (inactive) | 15.1 µM (inactive) | 17.1 µM (inactive) | 15.9 µM (inactive) |
| CSC1=C(SC)SC(=C2SC3=C(SC(=C4SCCS4)S3)S2)S1 | > 100 µM (inactive) | > 100 µM (inactive) | > 100 µM (inactive) | > 100 µM (inactive) | > 100 µM (inactive) | > 100 µM (inactive) | > 100 µM (inactive) | > 100 µM (inactive) | > 100 µM (inactive) |  | > 100 µM (inactive) | > 100 µM (inactive) | > 100 µM (inactive) | > 100 µM (inactive) | > 100 µM (inactive) | > 100 µM (inactive) | > 100 µM (inactive) | > 100 µM (inactive) | > 100 µM (inactive) | > 100 µM (inactive) |
| N=c1c2c(ncn1N)Oc1c(c(-c3ccccc3)nn1-c1ccccc1)C2c1ccc(Cl)cc1 (configuration not stated) | 1.43 µM (inactive) | 1.18 µM (inactive) | 1.39 µM (inactive) | 2.1 µM (inactive) | 1.65 µM (inactive) | 1.6 µM (inactive) | 1.71 µM (inactive) | 1.54 µM (inactive) | 1.66 µM (inactive) |  | 0.408 µM (active) | 1.64 µM (inactive) | 1.63 µM (inactive) | 1.76 µM (inactive) | 1.56 µM (inactive) | 1.5 µM (inactive) | 0.508 µM (active) | 1.64 µM (inactive) | 1.68 µM (inactive) | 2.01 µM (inactive) |
| CCC1=NC(C(F)(F)F)(C(F)(F)F)N=C(/N=C(/N)N(C)C(C(C)C)P(=O)(OC(C)C)OC(C)C)O1 (configuration not stated) | > 100 µM (inactive) | > 100 µM (inactive) | > 100 µM (inactive) | > 100 µM (inactive) | > 100 µM (inactive) | > 100 µM (inactive) | > 100 µM (inactive) | > 100 µM (inactive) | > 100 µM (inactive) |  | > 100 µM (inactive) | > 100 µM (inactive) | > 100 µM (inactive) | > 100 µM (inactive) | > 100 µM (inactive) | > 100 µM (inactive) | > 100 µM (inactive) | > 100 µM (inactive) | > 100 µM (inactive) | > 100 µM (inactive) |
